Measured values reported in US12241112B2, “D-glucaric acid producing bacterium, and method for manufacturing D-glucaric acid” (Ensuiko Sugar Refining Co., Ltd., priority 2012, dated 2025).
Counter-ions that a name gives are not always drawn.

T1: β-glucuronidase (Homo sapiens, UniProt P08236)
T1 sequence (P08236 23-651): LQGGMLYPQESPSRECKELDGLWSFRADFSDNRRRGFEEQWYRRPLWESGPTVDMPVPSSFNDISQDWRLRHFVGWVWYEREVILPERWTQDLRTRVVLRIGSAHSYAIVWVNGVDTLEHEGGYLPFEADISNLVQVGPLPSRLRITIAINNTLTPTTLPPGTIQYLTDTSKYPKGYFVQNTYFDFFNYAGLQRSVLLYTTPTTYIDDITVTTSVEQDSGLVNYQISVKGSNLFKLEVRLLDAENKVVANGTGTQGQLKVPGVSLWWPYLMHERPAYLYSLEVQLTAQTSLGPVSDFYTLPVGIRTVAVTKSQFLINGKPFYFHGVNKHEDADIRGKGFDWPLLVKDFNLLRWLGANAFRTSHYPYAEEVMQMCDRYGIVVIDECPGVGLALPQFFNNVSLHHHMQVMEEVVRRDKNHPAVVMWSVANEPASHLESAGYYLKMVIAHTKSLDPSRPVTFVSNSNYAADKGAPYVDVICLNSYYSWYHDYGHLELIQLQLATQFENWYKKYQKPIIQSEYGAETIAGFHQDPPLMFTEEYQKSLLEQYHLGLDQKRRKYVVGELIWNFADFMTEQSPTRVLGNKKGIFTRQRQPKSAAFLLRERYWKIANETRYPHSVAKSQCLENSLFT


Legend:
[1] = target: T1, β-glucuronidase; conditions: background statement; cited from earlier work
[2] = test system: PQQ-ALDH (2); assay: Substrate specificity of PQQ-ALDH (2); format: biochemical, Pseudogluconobacter saccharoketogenes; conditions: McIlvaine buffer pH 8.0, relative to sodium salt of intermediate B set to be 100
Protocol: (§1) • Substrate solution: 0.2 M sodium glyoxylate solution (adjusted to pH 8.0 with sodium hydroxide) • Buffer: McIlvaine buffer (pH 8.0)
(§2) Other reagents and preparation methods thereof and measurement procedures are in accordance with the measurement of ADH (1) activity.
(§3) Each substrate (D-glucose, sodium D-gluconate, sodium D-glucuronate, intermediate A, sodium salt of intermediate B, sodium glyoxylate) was dissolved in McIlvaine buffer (pH 8.0) and the activity of ALDH was measured as described in Example 1 to study the substrate specificity of PQQ-ALDH (2). The enzyme activity for each substrate is expressed as a relative activity to the activity measured with the sodium salt of intermediate B as a substrate that was set to be 100.

[3] = test system: PQQ-ADH (1); assay: Substrate specificity of PQQ-ADH (1); format: biochemical, Pseudogluconobacter saccharoketogenes; conditions: McIlvaine buffer pH 5.0, relative to D-glucose set to be 100
Protocol: (§4) The culture solution (1 mL) was centrifuged at 10,000 rpm for 5 minutes to recover the cells. The cells were resuspended in 1 mL of 0.9% saline. The cell suspension was appropriately diluted in 0.9% saline to obtain a crude enzyme solution. In a test tube 250 μL of the buffer, 500 μL of the substrate solution and 50 μL of the crude enzyme solution were placed and preliminarily heated to 30° C. for 5 minutes.
(§5) To the mixture 200 μL of the potassium ferricyanide solution was added to initiate oxidation reaction. After 10 minutes, 500 μL of the reaction termination solution was added to terminate the reaction. The reaction solution was added with 3.5 mL of pure water, left to stand in the dark at room temperature for 20 minutes and measured for the absorbance at 660 nm. For the control, pure water was used instead of the substrate solution. In this measurement, 1 U is defined as the amount of enzyme required to oxidize 1 μM of the substrate per minute.
as §3, with “B)” for “B, sodium glyoxylate)”, “5.0)” for “8.0)”, “ADH” for “ALDH”, “PQQ-ADH (1).” for “PQQ-ALDH (2).”, “D-glucose” for “the sodium salt of intermediate B”

[4] = test system: PQQ/Heme-ALDH (4); assay: Substrate specificity of PQQ/Heme-ALDH (4); format: biochemical, Pseudogluconobacter saccharoketogenes; conditions: McIlvaine buffer pH 8.0, relative to sodium D-gluconate set to be 100
Protocol: as §1, §2
Each substrate (D-glucose, sodium D-gluconate, sodium D-glucuronate, intermediate A, sodium salt of intermediate B, sodium glyoxylate) was dissolved in McIlvaine buffer (pH 8.0) and the activity of ALDH was measured as described in Example 1 to study the substrate specificity of PQQ/Heme-ALDH (4). The enzyme activity for each substrate is expressed as a relative activity to the activity measured with sodium D-gluconate as a substrate that was set to be 100.

[5] = test system: ALDH (2 and 3); assay: Measurement of activity of ALDH (2 and 3) (potassium ferricyanide method, sodium glyoxylate substrate, pH 8.0); format: biochemical, Pseudogluconobacter saccharoketogenes
Protocol: as §4, §5
2) Measurement of Activity of ALDH (2 and 3)
as §1, §2

[6] = test system: ADH (1); assay: Measurement of activity of ADH (1) (potassium ferricyanide method, glucose substrate, pH 5.0); format: biochemical, Pseudogluconobacter saccharoketogenes; conditions: ADH (1) activity
Protocol: 1) Measurement of Activity of ADH (1)
• Substrate solution: 0.2 M glucose solution • Buffer: McIlvaine buffer (pH 5.0) • Potassium ferricyanide solution: 0.1 M potassium ferricyanide solution • Reaction termination solution: 5 g of ferric sulphate and 95 mL of phosphoric acid were dissolved in pure water and adjusted to 1 L. <Measurement Procedures>
as §4, §5

| Molecule | Relative activity ([2]; 0.2M substrate) | Relative activity ([3]; 0.2M substrate) | Relative activity ([4]; 0.2M substrate) | other results |
| --- | --- | --- | --- | --- |
| O=C(O)[C@@H](O)[C@@H](O)[C@H](O)[C@@H](O)C(=O)O [D-glucaric acid] | – | – | – | inhibition of β-glucuronidase [1]: strongly inhibit |
| O=C[C@H](O)[C@@H](O)[C@H](O)[C@H](O)CO [D-glucose] | 11.8% | 100% | 35.1% | – |
| O=C[C@@H](O)[C@@H](O)[C@H](O)[C@@H](O)C=O [intermediate A, D-glucaraldehyde] | – | – | – | Relative activity ([2]; 0.02M substrate): 476%; Relative activity ([3]; 0.02M substrate): 59.1%; Relative activity ([4]; 0.02M substrate): 11.6% |
| O=C([O-])[C@H](O)[C@@H](O)[C@H](O)[C@H](O)CO.[Na+] [sodium D-gluconate] | <1% | 88.6% | 100% | – |
| O=C[C@H](O)[C@@H](O)[C@H](O)[C@H](O)C(=O)[O-].[Na+] [sodium D-glucuronate] | 18.6% | <1% | 2.9% | – |
| O=CC(=O)[O-].[Na+] [sodium glyoxylate, reference compound] | 3,050% | – | 20,260% | – |
| O=C[C@@H](O)[C@@H](O)[C@H](O)[C@@H](O)C(=O)O [sodium salt of intermediate B, L-guluronic acid] | 100% | 2.7% | 21.1% | – |
| PQQ-ALDH (2): specific pyrroloquinoline quinone-dependent aldehyde dehydrogenase, amino acid sequence of SEQ ID NO: 2 (protein, Pseudogluconobacter) MYRKGSVLTVSALVLGLCTSSVWAQQAPTTNALDNLTPVTSVWAQQAPTTNALDNLTPVTGWGYSPLDQINKDNVDKLQLVWSWGLSPGGTTQETPLVHDGVMFVQNSSHLIQALDAGTGELLWQYQYSLPTGVNPAGQRSKALYGDNLIFATRDAHIVAVNAKTGKLAWDQQVADYKKGWGYSSGPLVADGTIIQGMTNCGNGEPGGCFITGHDPATGKELWRLNTIASGDTPEGNSWNGLPQMSRYGASAWITGSYDPDQNIVFAGVGQPYPWPAVLNGLLPKSTDSKYTNNAAYTDSTLAIEPKTGALKWYHQYLATDTLDLDYVYERLLVDLPVKGEATKQVITAGKLAIIESLDRTSGKWLWAHETVPQNVVSAIDPVTGEKTINPDVIPQVGKTTVNCPADPGGRAWQATSFSPKTQMMYMPTVEFCSNTDVNPLDPGQVYTGGGLATFNRVPRPDSDGNIGQVRAINLADQTDAWMYRQHAPVTTSTLPTGGGLVFVGTLDRKLIAFDDTTGKILWTSPKLDNAIESFPVTFTAGDKQYVAVVTNWSSGLGRLKSITPDVQLPQDNPHTVYVFALPDTK | – | – | – | Specific activity ([5]; enzyme purified from Rh47-3 strain, ALDH (2) activity): 8,928 U/mg |
| PQQ-ADH (1): specific pyrroloquinoline quinone-dependent alcohol dehydrogenase, amino acid sequence of SEQ ID NO: 1 (protein, Pseudogluconobacter) MLKQSLLASGLAALCVAAMGSLSLAAETTSERLLNAGSEAENGNWLMVHRTYDSHRFSPLSEINKDTIKDLGLASVTILDNASRGGRYASARNEGTPLVEDGFMYLQSGWSVVYKLDVRDGKTAKVVWKYDPEVDRQWVSDATCCGAENRGIGLWNDDVVALTMDGRVMSINKDTGELNWEKQRADKARAESFTGAPLIIGDTAVYGPAGGEYGIRGWLEAIDLKTGDVAWRTYTVPGPGEPGNDTWQGNAWETGGASIWQTGSYDPDTGMTYWGTGNPAPQIDAEYRPGDNLYASSLLALDAKDGALKWHFQFTPNDPYDYDEIGDNQLLDVSVDGKPSKMVVRAARNGFMYGFNRLDGAMTYAKQYVEDLTWTTGIDPKTGKPLEYDPKAQLQKYVAGTVGSREGNPGIYCPTLGGGKNWQPAAYSPNTKLLYVTSAEGCSAYVPEAAPNPTTTGGEYDVVKAQREWNGRLPAPEGTKLPDVFNGGSVKAIDPLTGETKAKVLVPRRLNGMLATGGDLVWSSGTDGNLYAYDANTLETVWTFNVGTALGGPPMSYSVDGKQYVAVLAGAAASAADKKVAPQSEFFVPADALYIFALK | – | – | – | Specific activity ([6]; enzyme purified from K591s strain): 36.0 U/mg; Specific activity ([6]; enzyme purified from Rh47-3 strain): 38.6 U/mg |
| PQQ/Heme-ALDH (4): ALDH (3) enzyme with the highest activity, contains PQQ and Heme c, SEQ ID NO: 3 (protein, PQQ and heme c cofactors; Pseudogluconobacter) MTIRLKTLLAFTAITTLALPAFAQDAAAPAAPAARTYKPVTNDMILNPPAEEWISWRRTVDNQGYSPLDLINKDIVKNLELAWAWPMAADGQQEAAPLVHDGIMFLSTNQNIIQALDAKTGDLIWEYRHVLPELPTSWGYQLNQARRQKNSIALYDDKVIVATADAKLVALDAATGKVAWETQVYDTQKGYSYTVGPLIVGDTAVYGPAGGEYGIRGWLEFIAAHDAKTGKEIWRFNTIDDPKNPEQEASWNGVPPENRWGGTPWTTGSYDPRTNTTFWGVGMPGPYSQLIRGSGEGPVLYTNNTLALDADTGERKWNFSHLPADNWDLDSPFERILVDEGQGDAAKHLLVTVPGKDGIAFGLDRDTGKYLWSRDTVYQNVVKNIDAEGKVTLNSDLVPTAVNQEVFVCTSVSGGKLWMTGAYSPKTQTYYVPLAEACNTVTPTVTEFTAGNAVGATKFGPRVLPPNITNGGVVEAINVADGARKWRLEQRPTFSSSLLAKAKVLVPRRLNGMLATGGDLETGQVVWKTRLNAPIGGYPMTYEIDGEQYLAVPTGFSAQASSSASMFPEIPVPSGSGNSLFVFKLRNDTQTASK | – | – | – | Specific activity ([5]; enzyme purified from K591s strain, ALDH (3) activity): 27,661 U/mg |
